From patent US10034854B2, “Pharmaceutical composition with improved bioavailability” (Hoffmann-La Roche Inc., priority 2013, dated 2018)
Values after ≈ are worked out from the molar mass of the structure shown. Where two headings read alike, the source gives them in different places.

Tests used:
[1] = Caco-2 assay (permeability); assay type: in vitro ADME; settings: human
Text: The permeability of the compound is not high as determined with the Caco-2 assay value of 0.8×10^−6 cm/s. The poor solubility and the targeted high doses/frequency of dosing for this series of compounds led to the categorization of Compound A as BCS class IV compound (poor solubility/poor permeability).

[2] = Aqueous solubility of crystalline Compound A at physiological pHs; assay type: physicochemical
[3] = Pharmacokinetics / bioavailability in monkeys; settings: IV, 1.25 mg/kg, fed
[4] = Solubility in bio-relevant fluids (FaSSIF, FeSSIF); assay type: physicochemical; settings: thermodynamic from solid, 37° C.
Experimental: Approximately 5 mg of Compound A as MBP was placed in 20 mL of 37° C. bio-relevant fluids (Fasted State Simulated Intestinal Fluid and Fed State Simulated Intestinal Fluid) and was filtered through a 0.2 μm filter over time. The filtrate was then analyzed by HPLC.

[5] = Salt screening: solubility of various salts of Compound A; settings: for solubility: salts of Compound A, at the pH of the same line
[6] = Animal pharmacokinetics study of formulations (FIG. 3); settings: oral formulations
[7] = pH belonging to the solubility value of the salt

For `COc1cc(C(=O)O)ccc1NC(=O)[C@@H]1N[C@@H](CC(C)(C)C)[C@](C#N)(c2ccc(Cl)cc2F)[C@H]1c1cccc(Cl)c1F` [Compound A, 4-{[(2R,3S,4R,5S)-4-(4-Chloro-2-fluoro-phenyl)-3-(3-chloro-2-fluoro-phenyl)-4-cyano-5-(2,2-dimethyl-propyl)-pyrrolidine-2-carbonyl]-amino}-3-methoxy-benzoic acid], the Papp [1] was 0.8 ×10⁻⁶ cm/s, the solubility ([2]; aqueous medium, aqueous buffer, crystalline form, physiological pHs (pH 1.5-7.0)) was < 0.05 µg/mL and the solubility ([2]; pH 1.5, aqueous buffer, crystalline forms, in water at physiological pHs (pH1.5-8.0)) was < 0.05 µg/mL. For the same compound, the “% AUC Extrap” value [3] was 0.7% and the AUC/Dose [3] was 10.3 µg·h/mL/mg/kg.
With `COc1cc(C(=O)O)ccc1NC(=O)[C@@H]1N[C@@H](CC(C)(C)C)[C@](C#N)(c2ccc(Cl)cc2F)[C@H]1c1cccc(Cl)c1F` [Crystalline Form, 4-{[(2R,3S,4R,5S)-4-(4-Chloro-2-fluoro-phenyl)-3-(3-chloro-2-fluoro-phenyl)-4-cyano-5-(2,2-dimethyl-propyl)-pyrrolidine-2-carbonyl]-amino}-3-methoxy-benzoic acid] the solubility ([4]; Fasted State Simulated Intestinal Fluid (FaSSIF), FaSSIF) was 2 µg/mL (≈ 3.24 µM) and the solubility ([4]; Fed State Simulated Intestinal Fluid (FeSSIF), FeSSIF) was 3 µg/mL (≈ 4.87 µM).
With `CNC[C@H](O)[C@@H](O)[C@H](O)[C@H](O)CO` [Meglamine] the “aqueous solubility (in words)” value ([5]; among the salts identified in salt screening) was “most improved aqueous solubility”, the pH [5, 7] was 7.8 and the solubility [5] was >1400 µg/mL. For the same compound, the “bioavailability (exposure) (in words)” value [6] was “not improved”.
`CS(=O)(=O)O` [Methanesulfonic acid (Mesylate)] showed a pH [5] of 3.1.
With `[K+]` [Potassium] the pH [5, 7] was 8.0 and the solubility [5] was 0.5 µg/mL.
With `Cc1ccc(S(=O)(=O)O)cc1` [p-Toluenesulfonic acid] the pH [5, 7] was 2.7 and the solubility [5] was <0.02 µg/mL.
Sodium showed a pH [5, 7] of 7.2 and a solubility [5] of 0.7 µg/mL.
